The target in experiment [1] is purified Ndh (Mtb recombinant MBP tagged Ndh-2 enzyme, MBP-Ndh) (Mycobacterium tuberculosis (strain ATCC 25618 / H37Rv), UniProt P95160). Kind of experiment: Biochemical evaluation of MBP-Ndh inhibition (NADH oxidation with menadione).
The subject of the next experiment is Mtb H37Rv-WT. As to the kind of experiment: MIC by resazurin microtiter assay (REMA) against Mtb. As to conditions: Mycobacterium tuberculosis. The class given is cell-based.
Another experiment deals with M. abscessus R. Kind of experiment: MIC analysis of non-Mtb mycobacteria. Format: cell-based, Mycobacterium abscessus. As to conditions: Mycobacteroides abscessus, 48 h; 2 days incubation.
The target of experiment [2] is NdhA-M. tb (recombinant MBP-NdhA) (Mycobacterium tuberculosis (strain ATCC 25618 / H37Rv), UniProt P95200). As to the kind of experiment: Biochemical evaluation of MBP-NdhA inhibition (NADH oxidation with menadione).
Another experiment concerns M. smegmatis. As to the kind of experiment: MIC analysis of non-Mtb mycobacteria. As to conditions: Mycolicibacterium smegmatis, 48 h; 2 days incubation. Format: cell-based.
A further experiment has as its system M. avium. Kind of experiment: MIC analysis of non-Mtb mycobacteria. Format: cell-based. As to conditions: Mycobacterium avium, 120 h; 5 days incubation.
The subject of another experiment is BCG. As to the kind of experiment: microbe, parasite or virus in culture. Format: cell-based. As to conditions: Mycobacterium tuberculosis variant bovis BCG, read-out: MIC BCG.
The test system of the next experiment is M. abscessus S. Kind of experiment: MIC analysis of non-Mtb mycobacteria. Format: cell-based, Mycobacterium abscessus. As to conditions: Mycobacteroides abscessus, 48 h; 2 days incubation.
A further experiment relates to M. marinum. As to the kind of experiment: MIC analysis of non-Mtb mycobacteria. The class given is cell-based. As to conditions: Mycobacterium marinum, 120 h; 5 days, 30° C., visual inspection.
The mark [3] stands for this setting: NADH 500 μM, menadione 100 μM, read-out: IC50 (μM) purified Ndh.
Where [4] appears, read: 144 h, REMA, 37° C., 6 days, read-out: MIC (μM) H37Rv-WT.
The mark [5] stands for this setting: 144 h, read-out: MIC (μM) H37Rv-WT.
The mark [6] stands for this setting: REMA, read-out: MIC M. tuberculosis.

Values after ≈ are worked out from the molar mass of the structure shown. Read-outs that look alike come from different tables or passages of the source.

purified Ndh (Mtb recombinant MBP tagged Ndh-2 enzyme, MBP-Ndh), sequence (P95160 whole entry, looked up): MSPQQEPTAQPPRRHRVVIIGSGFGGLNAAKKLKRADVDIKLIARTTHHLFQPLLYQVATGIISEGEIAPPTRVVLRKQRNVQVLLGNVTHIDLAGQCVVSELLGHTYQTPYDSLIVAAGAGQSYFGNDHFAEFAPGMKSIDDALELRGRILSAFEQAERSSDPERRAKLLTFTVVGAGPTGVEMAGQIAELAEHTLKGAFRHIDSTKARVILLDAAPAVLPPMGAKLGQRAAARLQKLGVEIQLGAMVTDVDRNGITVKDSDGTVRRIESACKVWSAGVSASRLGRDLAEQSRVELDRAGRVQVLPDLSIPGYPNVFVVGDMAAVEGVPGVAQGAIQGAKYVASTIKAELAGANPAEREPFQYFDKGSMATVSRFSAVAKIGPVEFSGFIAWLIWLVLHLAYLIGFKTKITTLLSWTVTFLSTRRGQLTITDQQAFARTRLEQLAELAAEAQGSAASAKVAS
NdhA-M. tb (recombinant MBP-NdhA), sequence (P95200 whole entry, looked up): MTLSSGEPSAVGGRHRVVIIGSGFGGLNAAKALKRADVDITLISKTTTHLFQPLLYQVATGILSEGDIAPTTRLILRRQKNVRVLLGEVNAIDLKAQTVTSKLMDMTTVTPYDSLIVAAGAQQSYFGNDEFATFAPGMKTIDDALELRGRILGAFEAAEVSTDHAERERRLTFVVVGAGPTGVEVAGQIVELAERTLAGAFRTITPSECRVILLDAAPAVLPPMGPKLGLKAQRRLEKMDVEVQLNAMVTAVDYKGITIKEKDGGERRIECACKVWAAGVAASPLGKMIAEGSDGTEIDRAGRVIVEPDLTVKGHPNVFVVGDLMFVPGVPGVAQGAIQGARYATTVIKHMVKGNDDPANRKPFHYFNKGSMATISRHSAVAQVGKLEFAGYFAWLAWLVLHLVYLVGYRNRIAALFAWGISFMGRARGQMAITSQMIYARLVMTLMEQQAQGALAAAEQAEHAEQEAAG

Take `CC(C)[C@H]1CO[C@]23CCN(Cc4cccc5cccnc45)C[C@H]2CCC(=O)N13` [(3S,7aR,11aR)-3-isopropyl-9-(8-quinolylmethyl)-2,3,6,7,7a,8,10,11-octahydrooxazolo[2,3-j][1,6]naphthyridin-5-one]: in [1] (setting [3]), the IC50 is greater than 1 µM. The MIC in the experiment on Mtb H37Rv-WT (setting [4]) is 1 to 10 µM (≈ 0.38 to 3.8 µg/mL).

As to `CC(C)[C@H]1CO[C@]23CCN(Cc4ccc5ccccc5n4)C[C@H]2CCC(=O)N13` [(3S,7aR,11aR)-3-isopropyl-9-(2-quinolylmethyl)-2,3,6,7,7a,8,10,11-octahydrooxazolo[2,3-j][1,6]naphthyridin-5-one], in experiment [1] (setting [3]), the IC50 lay in the range of 0.1 to 1 µM. The MIC in the experiment with Mtb H37Rv-WT (setting [4]) was less than 1 µM.

Take `CC(C)[C@H]1CO[C@]23CCN(CC4CCCCC4)C[C@H]2CCC(=O)N13` [(3S,7aR,11aR)-9-(cyclohexylmethyl)-3-isopropyl-2,3,6,7,7a,8,10,11-octahydrooxazolo[2,3-j][1,6]naphthyridin-5-one]: in [1] (setting [3]), the IC50 lay in the range of 0.1 to 1 µM. Besides, the MIC in the experiment on Mtb H37Rv-WT (setting [4]) was less than 1 µM.

`CC(C)[C@H]1CO[C@]23CCN(Cc4cccnc4)C[C@H]2CCC(=O)N13` [(3S,7aR,11aR)-3-isopropyl-9-(3-pyridylmethyl)-2,3,6,7,7a,8,10,11-octahydrooxazolo[2,3-j][1,6]naphthyridin-5-one]: the IC50 in experiment [1] (setting [3]) is greater than 1 µM. In addition, the MIC in the experiment with Mtb H37Rv-WT (setting [5]) was in the range of 1 to 10 µM (≈ 0.329 to 3.29 µg/mL).

Consider `CC(C)[C@H]1CO[C@]23CCN(C(=O)OCc4ccccc4)C[C@H]2CCC(=O)N13` [benzyl (3S,7aR,11aR)-3-isopropyl-5-oxo-2,3,6,7,7a,8,10,11-octahydrooxazolo[2,3-j][1,6]naphthyridine-9-carboxylate], for which the IC50 in experiment [1] (setting [3]) lay within 0.1 to 1 µM. The MIC with Mtb H37Rv-WT (setting [4]) was 1 to 10 µM (≈ 0.372 to 3.72 µg/mL).

With `CC(C)[C@H]1CO[C@]23CCN(Cc4ccccn4)C[C@H]2CCC(=O)N13`, the IC50 in experiment [1] was in the range of 0.1 to 1 µM. Besides, in the experiment on Mtb H37Rv-WT (setting [5]), the MIC lay within 1 to 10 µM (≈ 0.329 to 3.29 µg/mL).

As for `CC(C)[C@H]1CO[C@]23CCN(CCc4ccccc4)C[C@H]2CCC(=O)N13` [(3S,7aR,11aR)-3-isopropyl-9-(2-phenylethyl)-2,3,6,7,7a,8,10,11-octahydrooxazolo[2,3-j][1,6]naphthyridin-5-one], the IC50 in [1] (setting [3]) fell in the range of 0.1 to 1 µM. Also, the MIC with Mtb H37Rv-WT (setting [4]) lay in the range of 1 to 10 µM (≈ 0.342 to 3.42 µg/mL).

With `COc1ccc(CN2CC[C@]34OC[C@H](C(C)C)N3C(=O)CC[C@@H]4C2)cc1` [(3S,7aR,11aR)-3-isopropyl-9-[(4-methoxyphenyl)methyl]-2,3,6,7,7a,8,10,11-octahydrooxazolo[2,3-j][1,6]naphthyridin-5-one], the IC50 in experiment [1] (setting [3]) lay within 0.1 to 1 µM. In the experiment on Mtb H37Rv-WT (setting [4]), the MIC fell in the range of 1 to 10 µM (≈ 0.358 to 3.58 µg/mL).

Consider `CC(C)[C@H]1CO[C@]23CCN(CCc4ccc(C(F)(F)F)cc4)C[C@H]2CCC(=O)N13`, for which the IC50 in [1] (setting [3]) was in the range of 0.1 to 1 µM. Moreover, in the experiment on Mtb H37Rv-WT (setting [4]), the MIC was less than 1 µM.

Regarding `CC(C)[C@H]1CS[C@]23CCN(Cc4ccccc4)C[C@H]2CCC(=O)N13` [(3S,7aR,11aR)-9-benzyl-3-isopropyl-2,3,6,7,7a,8,10,11-octahydrothiazolo[2,3-j][1,6]naphthyridin-5-one], the IC50 in experiment [1] (setting [3]) is greater than 1 µM.

With `CC(C)[C@H]1CO[C@]23CCN(S(=O)(=O)c4ccc(C(F)(F)F)cc4)C[C@H]2CCC(=O)N13` [(3S,7aR,11aR)-3-isopropyl-9-[4-(trifluoromethyl)phenyl]sulfonyl-2,3,6,7,7a,8,10,11-octahydrooxazolo[2,3-j][1,6]naphthyridin-5-one], the IC50 in experiment [1] (setting [3]) lay in the range of 0.1 to 1 µM. Further, the MIC with Mtb H37Rv-WT (setting [4]) lay within 1 to 10 µM (≈ 0.446 to 4.46 µg/mL).

In the case of `CC(C)[C@H]1CO[C@]23CCN(Cc4ccc(C(F)(F)F)cc4)C[C@H]2CCC(=O)N13` [Example 2, (3S,7aR,11aR)-3-isopropyl-9-[[4-(trifluoromethyl)phenyl]methyl]-2,3,6,7,7a,8,10,11-octahydrooxazolo[2,3-j][1,6]naphthyridin-5-one], the MIC was 1 to 10 µM (≈ 0.396 to 3.96 µg/mL) against M. abscessus R; 1 to 10 µM (≈ 0.396 to 3.96 µg/mL) with M. smegmatis; less than 1 µM with Mtb H37Rv-WT (setting [6]); less than 1 µM against M. avium; 1 to 10 µM (≈ 0.396 to 3.96 µg/mL) in the experiment with BCG; 1 to 10 µM (≈ 0.396 to 3.96 µg/mL) with M. abscessus S. Also, the MIC in the experiment with M. marinum was less than 1 µM. For the same compound, the IC50 in experiment [2] is less than 100 nM.

In the case of `CC(C)[C@H]1CO[C@]23CCN(Cc4cc5ccccc5n4C)C[C@H]2CCC(=O)N13` [Example 28, (3S,7aR,11aR)-3-isopropyl-9-[(1-methylindol-2-yl)methyl]-2,3,6,7,7a,8,10,11-ocathydrooxazolo[2,3-j][1,6]naphthyridin-5-one], the IC50 in experiment [1] (read-out: IC50 Ndh-M. tb) was less than 0.1 µM. In addition, the MIC against M. smegmatis and with Mtb H37Rv-WT (setting [6]) was less than 1 µM throughout.

Consider `CC(C)[C@H]1CO[C@]23CCN(Cc4ccccc4)C[C@H]2CCC(=S)N13` [(3S,7aR,11aR)-9-benzyl-3-isopropyl-2,3,6,7,7a,8,10,11-octahydrooxazolo[2,3-j][1,6]naphthyridine-5-thione], for which the concentration for half-maximal inhibition (IC50) in experiment [1] (setting [3]) lay within 0.1 to 1 µM. Further, the MIC in the experiment on Mtb H37Rv-WT (setting [4]) lay within 1 to 10 µM (≈ 0.345 to 3.45 µg/mL).

On to `CC(C)[C@H]1CO[C@]23CCN(Cc4ccc(Cl)c(C(F)(F)F)c4)C[C@H]2CCC(=O)N13` [Example 9, (3S,7aR,11aR)-9-[[4-chloro-3-(trifluoromethyl)phenyl]methyl]-3-isopropyl-2,3,6,7,7a,8,10,11-octahydrooxazolo[2,3-j][1,6]naphthyridin-5-one], for which the IC50 in experiment [1] (read-out: IC50 Ndh-M. tb) is less than 0.1 µM. The MIC was 1 to 10 µM (≈ 0.431 to 4.31 µg/mL) against M. abscessus R; 1 to 10 µM (≈ 0.431 to 4.31 µg/mL) with M. smegmatis; less than 1 µM with Mtb H37Rv-WT (setting [6]); less than 1 µM in the experiment with M. avium; 1 to 10 µM (≈ 0.431 to 4.31 µg/mL) in the experiment with BCG; 1 to 10 µM (≈ 0.431 to 4.31 µg/mL) with M. abscessus S. The MIC against M. marinum is less than 1 µM.

For `CC(C)[C@H]1CO[C@]23CCN(Cc4ccc(Cl)cc4)C[C@H]2CCC(=O)N13` [Example 4, (3S,7aR,11aR)-9-[(4-chlorophenyl)methyl]-3-isopropyl-2,3,6,7,7a,8,10,11-octahydrooxazolo[2,3-j][1,6]naphthyridin-5-one], the IC50 in [1] (read-out: IC50 Ndh-M. tb) is less than 0.1 µM; in [2] it was less than 100 nM. Also, the MIC in the experiment with Mtb H37Rv-WT (setting [6]) is less than 1 µM.

For the compound `CC(C)(C)[C@H]1CO[C@]23CCN(Cc4ccccc4)C[C@H]2CCC(=O)N13` [(3S,7aR,11aR)-9-benzyl-3-tert-butyl-2,3,6,7,7a,8,10,11-octahydrooxazolo[2,3-j][1,6]naphthyridin-5-one], in experiment [1] (setting [3]), the IC50 was greater than 1 µM. Also, the MIC with Mtb H37Rv-WT (setting [4]) is greater than 10 µM.

As for `CC(C)[C@H]1CO[C@]23CCN(Cc4ccc(Cl)c(Cl)c4)C[C@H]2CCC(=O)N13` [Example 5, (3S,7aR,11aR)-9-[(3,4-dichlorophenyl)methyl]-3-isopropyl-2,3,6,7,7a,8,10,11-octahydrooxazolo[2,3-j][1,6]naphthyridin-5-one], in experiment [1] (read-out: IC50 Ndh-M. tb), the IC50 is less than 0.1 µM. The MIC with Mtb H37Rv-WT (setting [6]) was less than 1 µM.

For `CC(C)[C@H]1CO[C@]23CCN(c4ccccc4)C[C@H]2CCC(=O)N13` [(3S,7aR,11aR)-3-isopropyl-9-phenyl-2,3,6,7,7a,8,10,11-octahydrooxazolo[2,3-j][1,6]naphthyridin-5-one], the IC50 in [1] (setting [3]) lay in the range of 0.1 to 1 µM. The MIC in the experiment on Mtb H37Rv-WT (setting [4]) fell in the range of 1 to 10 µM (≈ 0.314 to 3.14 µg/mL).

As for `CC(C)[C@H]1CO[C@]23CCN(Cc4ccc(OC(F)(F)F)cc4)C[C@H]2CCC(=O)N13` [Example 3, (3S,7aR,11aR)-3-isopropyl-9-[[4-(trifluoromethoxy)phenyl]methyl]-2,3,6,7,7a,8,10,11-octahyooxazolo[2,3-j][1,6]naphthyridin-5-one], the MIC in the experiment with M. abscessus R was 1 to 10 µM (≈ 0.412 to 4.12 µg/mL); in the experiment on M. smegmatis, 1 to 10 µM (≈ 0.412 to 4.12 µg/mL); with Mtb H37Rv-WT (setting [6]), less than 1 µM; against M. avium, less than 1 µM; with BCG, 1 to 10 µM (≈ 0.412 to 4.12 µg/mL); against M. abscessus S, 1 to 10 µM (≈ 0.412 to 4.12 µg/mL). The MIC against M. marinum was less than 1 µM. Further, the IC50 in experiment [2] is less than 100 nM.

Take `CC(C)[C@H]1CO[C@]23CCN(Cc4ccc(C(F)(F)F)cn4)C[C@H]2CCC(=O)N13` [(3S,7aR,11aR)-3-isopropyl-9-[[5-(trifluoromethyl)-2-pyridyl]methyl]-2,3,6,7,7a,8,10,11-octahydrooxazolo[2,3-j][1,6]naphthyridin-5-one]: the IC50 in experiment [1] (setting [3]) was 0.1 to 1 µM. Besides, the MIC in the experiment on Mtb H37Rv-WT (setting [4]) is less than 1 µM.

On to `CC(C)[C@H]1CO[C@]23CCN(Cc4ccc(C(F)(F)F)nc4)C[C@H]2CCC(=O)N13` [(3S,7aR,11aR)-3-isopropyl-9-[[6-(trifluoromethyl)-3-pyridyl]methyl]-2,3,6,7,7a,8,10,11-octahydrooxazolo[2,3-j][1,6]naphthyridin-5-one], for which the IC50 in experiment [1] (setting [3]) is less than 0.1 µM. Also, the MIC in the experiment on Mtb H37Rv-WT (setting [4]) is less than 1 µM.

On to `CC(C)[C@H]1CO[C@]23CCN(Cc4ccc(C(F)(F)F)cc4)C[C@H]2OCC(=O)N13` [(1R,4S,9R)-4-isopropyl-11-[[4-(trifluoromethyl)phenyl]methyl]-2,8-dioxa-5,11-diazatricyclo[7.4.0.01,5]tridecan-6-one], for which, in the experiment with Mtb H37Rv-WT (setting [4]), the MIC lay within 1 to 10 µM (≈ 0.398 to 3.98 µg/mL).

Turning to `CC(C)[C@H]1CO[C@]23CCN(C(=O)Cc4ccccc4)C[C@H]2CCC(=O)N13` [(3S,7aR,11aR)-3-isopropyl-9-(2-phenylacetyl)-2,3,6,7,7a,8,10,11-octahydrooxazolo[2,3-j][1,6]naphthyridin-5-one], the IC50 in experiment [1] (setting [3]) was greater than 1 µM. Also, in the experiment with Mtb H37Rv-WT (setting [4]), the MIC was greater than 10 µM.
